From patent US20090088340A1, “METHODS FOR PREDICTING THE REDUCTION/OXIDATION (REDOX) REACTION ACTIVITY OF METAL COMPLEXES” (WESTERN CAROLINA UNIVERSITY, priority 2007, published 2009)
Where two headings read alike, the source gives them in different places. Marks after values point to notes of the source that are not given here.

Tests used:
Cu/Zn SOD [1] = target: T1, Cu/Zn SOD (Homo sapiens, UniProt P00441); conditions: 100 μM; Huang et al., Nature 2000; cited from earlier work
Cu/Zn SOD [2] = target: T1, Cu/Zn SOD; assay: Reaction of Cu/Zn SOD with superoxide in the presence of an inhibitor; type: biochemical; conditions: 100 μM, 20 mM phosphate buffered saline pH 7.2 (neutral conditions)
Description: SOD was added to give an NMR relaxation rate of 28 s^−1. […] See Huang et al., Nature, 2000, 407, 390-395. […] It was also determined that under these conditions, reaction of the enzyme with superoxide was not inhibited.

[3] = Metal/fluoride association from F^− 19F NMR transverse relaxation enhancement (CPMG); type: physicochemical; conditions: for kapp,X− (Flouride Association Reaction) / ΔH^‡ (Flouride Association Reaction): iron(III) complexes; for kapp,X− (Flouride Association Reaction) / kapp,X− (Anion Binding Data): 25° C., 90% H2O/10% D2O; for ΔH^‡ (Flouride Association Reaction): activation enthalpy; for ΔH^‡ (Anion Binding Data): manganese(II) complexes; for ΔH^‡ (Anion Binding Data) / kapp,X− (Anion Binding Data): metal/F^− association
Source text: CPMG is the standard technique for measuring transverse NMR relaxation times (T2). See, for example, Braun et al., “150 and More Basic NMR Experiments,” Wiley-VCH Weinheim, 1998, page 159.
Rate constants for metal/probe association reactions can be related directly to the effects of the metal complex on the NMR relaxation rates of probe nuclei.
R2,obs−R2,dia=kapp,F−[M] (6)
where R2,dia is the relaxation rate in diamagnetic solution and kapp,F− is the apparent second order rate constant for metal/F^− association. The effects of eleven paramagnetic metal complexes, Fe^IIIEDTA(H2O)^−, Fe^IIIEDTA(OH)^2−, Fe^IIIPDTA^−, Fe^IIIDTPA^2−, Fe^III2O(TTHA)^2−, Fe^III(CN)6^3−, Mn^IIEDTA(H2O)^2−, Mn^IIPDTA^2−, Mn^IIβ-EDDADP^2−, Mn^IIPO4^−, and Cu/Zn SOD on F^− ion ^19F NMR transverse relaxation rates (R2=1/T2) were studied in aqueous solutions as a function of temperature.
Without being bound to any one theory, the curvature of the plot can arise from a similarity in the magnitudes of outer-sphere and inner-sphere contributions to relaxation (R2,OS and R2,IS). See Dwek, R. A., Nuclear Magnetic Resonance in Biochemistry, Clarendon, Oxford, 1973. […] See Dwek, R. A., Nuclear Magnetic Resonance in Biochemistry, Clarendon, Oxford, 1973. To estimate the contribution of R2,OS, relaxation enhancement of the ^19F resonance of the trifluoroacetate anion (tfa) by Fe^IIIDTPA^2− was measured. R2,IS for the tfa resonance should be negligible due to the low basicity of the anion and the absence of a through bond pathway for magnetic interaction between the paramagnetic center and the ^19F nuclei. For the tfa resonance, R2,obs decreased with increasing temperature consistent with an outer-sphere interaction.
where α, β, and γ are constants. The γ term for F^− relaxation in Equation 7 was set equal to the slope of the least squares line for the tfa data, and ΔH^‡, α, and β were refined to give the curved trend line following the F^− data in FIG. 6. Dashed lines (a) and (b) in FIG. 6 represent the predicted outer-sphere and inner-sphere contributions to the relaxation rate, respectively. The 25° C. association rate constant and activation enthalpy in Table 1 (and used in FIG. 2) are from this refinement.

[4] = cited from earlier work; for kapp,O2− (Superoxide Reaction): iron(III) complexes, aqueous solution, literature values (footnotes b, c, d, f); for kapp,O2,A (Superoxide Reaction Data): full value printed in cell
[5] = trend line of FIG. 8; pH 4.0 to 9.2
Description: While Fe^IIIEDTA(OH)^2− is usually formed by deprotonation of coordinated water, its formation can also be thought of (in thermodynamic terms) as a ligand exchange. To investigate the thermodynamics of the formation of Fe^IIIEDTA(OH)^2−, the reaction of F^− with Fe^IIIEDTA(H2O)^− was studied as a function of pH. For Fe^IIIEDTA(H2O)^−, relaxation enhancements were measured for thirteen buffer conditions, having pH values ranging from 4.0 to 9.2. […] In this pH range, F^− 19F relaxation enhancement is governed by two protic equilibria, hydrolysis of Fe^IIIEDTA(H2O)^− and protonation of F^−, as described by Equations 9 and 10:
Fitting the data at pH>6 gives the thermodynamic equilibrium data for hydroxide binding.

[6] = MeOPH^− association; from Summers et al. 2001; cited from earlier work
[7] = Reaction of metal complexes with superoxide (pulse radiolysis and literature rate data); type: physicochemical; conditions: manganese(II) complexes, pulse radiolysis; for kapp,O2,B × 10^−2 (Superoxide Reaction Data): printed value is k × 10^−2; for kapp,O2,A × 10^−7 (Superoxide Reaction Data): printed value is k × 10^−7
Description: In addition, the rates at which O2.^− reacts with Fe^IIIPDTA^−, Mn^IIEDTA(H2O)^2−, Mn^IIPDTA^2−, and Mn^IIβ-EDDADP^2− were determined by pulse radiolysis. […] The data for the SOD enzyme was previously reported. See Viglino et al., J. Magn. Res., 1979, 34, 265. These reactivity patterns are consistent with literature precedents for similar complexes.
Rapid reactions of Fe^3+ with superoxide (O2.^−) appear to occur via inner-sphere mechanisms where metal/O2.^− association is rate limiting. Under this scenario, rates of metal/O2.^− reactions are expected to correlate with rates at which the metal complexes coordinate F^−.
In addition to metal/F^− association data, FIG. 2 includes published rate data for reactions of a water soluble manganese(III) porphyrin (Mn^IIITM-2-PyP^5+). One of the gray squares in FIG. 2 compares the rate of metal/MeOPH association to the catalytic rate constant for O2.^− dissmutation (kcat) for Mn^IIITM-2-PyP^5+. See Summers et al., Inorg. Chem., 2001, 40, 6547. Values of kcat for manganese(III) porphyrins are thought to be limited by rates of Mn^3+ reduction. See Batinic-Haberle et al., Inorg. Chem., 1999, 38, 4011-4022.

SOD = SOD (Bos taurus, UniProt P00442); conditions: from Viglino et al. 1979; cited from earlier work
SOD, sequence (P00442 2-152 limits assumed): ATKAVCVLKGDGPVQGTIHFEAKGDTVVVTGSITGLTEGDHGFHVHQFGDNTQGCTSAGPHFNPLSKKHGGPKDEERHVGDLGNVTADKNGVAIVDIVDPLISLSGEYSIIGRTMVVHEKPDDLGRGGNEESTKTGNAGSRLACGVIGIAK

T1 sequence (P00441 whole entry): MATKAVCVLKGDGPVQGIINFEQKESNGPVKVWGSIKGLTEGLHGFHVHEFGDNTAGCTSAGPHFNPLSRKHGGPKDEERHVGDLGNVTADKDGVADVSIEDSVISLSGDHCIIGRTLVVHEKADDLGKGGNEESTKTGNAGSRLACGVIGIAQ

In the case of COc1cc2c(cc1O)CC[C@@H]1[C@@H]2CC[C@]2(C)[C@@H](O)CC[C@@H]12 [Complex 2ME2, 2-methoxyestradiol], the “inhibition of Cu/Zn SOD previously reported” value (Cu/Zn SOD [1]) is listed as “complete inhibition” and the “reaction of the enzyme with superoxide” value (Cu/Zn SOD [2]) is listed as “not inhibited”.
In the case of O=C([O-])CN(CCN(CCN(CC(=O)[O-])CC(=O)[O-])CC(=O)[O-])CCN(CC(=O)[O-])CC(=O)[O-].[Fe+3].[Fe+3].[O-2] [Fe^III2O(TTHA)^2−], the “kapp,X− (Flouride Association Reaction)” value ([3]; pH 6) is given as 12 M⁻¹ s⁻¹, the “ΔH^‡ (Flouride Association Reaction)” value [3] is given as 9.32 kcal/mol and the “kapp,O2− (Superoxide Reaction)” value [4] is given as 1.2 × 10^4 (d) M^−1s^−1.
In the case of O=C([O-])CN(CCN(CC(=O)[O-])CC(=O)[O-])CCN(CC(=O)[O-])CC(=O)[O-].[Fe+3] [Fe^IIIDTPA^2−, iron (III) diethylenetriaminepentaacetate], the “kapp,X− (Flouride Association Reaction)” value ([3]; pH 6) is given as 240 M⁻¹ s⁻¹, the “ΔH^‡ (Flouride Association Reaction)” value [3] is given as 5.26 kcal/mol and the “kapp,O2− (Superoxide Reaction)” value [4] is given as 6 × 10^3 (c) M^−1s^−1.
For O.O=C([O-])CN(CCN(CC(=O)[O-])CC(=O)[O-])CC(=O)[O-].[Fe+3] [Fe^IIIEDTA(H2O)^−, iron (III) ethylenediamine-N,N,N″,N″-tetraacetic acid hydrate], the “kapp,X− (Flouride Association Reaction)” value ([3]; pH 6) was 93000 M⁻¹ s⁻¹, the “ΔH^‡ (Flouride Association Reaction)” value [3] was 9.32 kcal/mol and the “apparent rate constant for F^− association” value ([3]; trend line of FIG. 8, pH 4.0 to 9.2) was 4e+06 M⁻¹ s⁻¹. The “apparent rate constant for HF association” value [5] was 93000 M⁻¹ s⁻¹ and the “kapp,O2− (Superoxide Reaction)” value [4] was 1.9 × 10^6 (f) M^−1s^−1.
In the case of O.O.O.O.O.O.[Mn+2] [Mn^II(H2O)6^2+], the “kapp,X− (Anion Binding Data)” value [6] is given as 5.8 × 10^6 (e) M^−1s^−1, the “ΔH^‡ (Anion Binding Data)” value [6] is given as 47 ^(e) kJ/mol and the “kapp,O2,A (Superoxide Reaction Data)” value ([4]; from Pick-Kaplan and Rabini) is given as 1.1 × 10^8 (f) M^−1s^−1.
With O.O=C([O-])CN(CCN(CC(=O)[O-])CC(=O)[O-])CC(=O)[O-].[Mn+2] [Mn^IIEDTA(H2O)^2−] the “kapp,O2,B × 10^−2 (Superoxide Reaction Data)” value [7] was 4.0 ± 0.8 s^−1, the “kapp,O2,A × 10^−7 (Superoxide Reaction Data)” value [7] was 1.24 ± 0.24 M^−1s^−1 and the “ΔH^‡ (Anion Binding Data)” value [3] was 7.41 kcal/mol. The “kapp,X− (Anion Binding Data)” value ([3]; pH 7) was 60000 M⁻¹ s⁻¹.
In the case of O=P([O-])([O-])[O-].[Mn+2] [Mn^IIPO4 ^−], the “ΔH^‡ (Anion Binding Data)” value [3] is given as 10 kcal/mol, the “kapp,X− (Anion Binding Data)” value ([3]; pH 6) is given as 1.8 × 10^6 (b) M^−1s^−1 and the “kapp,O2,A (Superoxide Reaction Data)” value ([4]; pH 6, from Cabelli and Bielski) is given as 5.0 × 10^7 (b,c) M^−1s^−1.
For O=C([O-])CCN(CCN(CCC(=O)[O-])CC(=O)[O-])CC(=O)[O-].[Mn+2] [Mn^IIβ-EDDADP^2−], the “kapp,O2,B × 10^−2 (Superoxide Reaction Data)” value [7] was 3.5 ± 0.7 s^−1, the “kapp,O2,A × 10^−7 (Superoxide Reaction Data)” value [7] was 1.95 ± 0.40 M^−1s^−1 and the “ΔH^‡ (Anion Binding Data)” value [3] was 5.26 kcal/mol. The “kapp,X− (Anion Binding Data)” value ([3]; pH 7) was 130000 M⁻¹ s⁻¹.
In the case of F [fluoride, fluoride anion], the “association constant for fluoride binding” value (SOD) is given as 1.2 M⁻¹.
